Data as given in US20070191315A1, “Method for administering ibandronate” (priority 2006, published 2007).

Test system: metastatic bone pain
Experiment: Multicenter, randomized, active-controlled, double-blind trial of pain (BPI worst/average pain scales)
Assay type: in vivo
Details: patients; ibandronic acid 6 mg IV over 15 min on Days 1, 2 and 3, then 50 mg orally daily from Day 22; 24 weeks; compared to placebo treatment
Description: A multicenter, randomized, active-controlled, double-blind, parallel groups trial is conducted. Patients are centrally randomized via an interactive voice response system (IVRS) to treatment either with ibandronic acid or zoledronic acid. Study treatment begins within 96 hours of randomization. Treatment continues for 24 weeks. Patients record their pain on the WORST PAIN and the AVERAGE PAIN scales of the BPI, as well as daily analgesic use, on a nightly basis. Patients record the degree to which their pain interferes with normal functioning and any opioid side-effects weekly. WHO Performance Status, quality of life based on the EORTC QLQ-C30 instrument and quality of life based on the FACT-BP, an instrument specifically designed to measure quality of life in patients with bone pain are recorded at Day 8 and Weeks 6, 12, 18 and 24 of the trial. Patients have skeletal surveys performed at Baseline and at Weeks 12 and 24 as part of the monitoring of SREs. Patients randomized to the ibandronic acid arm receive ibandronic acid 6 mg intravenously over 15 minutes on Days 1, 2 and 3 of the trial, followed by ibandronic acid 50 mg orally daily beginning on Day 22 of the study. Patients also receive a placebo infusion every 3-4 weeks, depending on the underlying chemotherapy regimens patients may be receiving. Patients who are not receiving chemotherapy receive placebo infusions every 3 weeks. […]

SMILES: CCCCCN(C)CCC(O)(P(=O)(O)O)P(=O)(O)O [ibandronate, 3-(N-methyl-N-pentyl)amino-1-hydroxypropane-1,1-diphosphonic acid]
- pain scores: significantly lower pain scores
